Measured values taken from the NIST ThermoML archive (doi:10.1016/j.jct.2019.02.026).

Details: Liquid, Falling or rolling sphere viscometry

CCCCCCCCC(=O)OC [methyl nonanoate]
Details | viscosity [mPa·s]
297.15 K, 30034 kPa | 2.11
297.5 K, 24979 kPa | 2.01
297.81 K, 20011 kPa | 1.93
298.08 K, 14977 kPa | 1.83
298.42 K, 9955 kPa | 1.73
298.77 K, 4957 kPa | 1.65
299.19 K, 103 kPa | 1.56
302.91 K, 24994 kPa | 1.83
302.95 K, 30000 kPa | 1.91
303.01 K, 9972 kPa | 1.62
303.08 K, 4961 kPa | 1.54
303.09 K, 15047 kPa | 1.68
303.09 K, 19964 kPa | 1.76
303.1 K, 106 kPa | 1.46
312.06 K, 29961 kPa | 1.65
312.19 K, 25005 kPa | 1.57
312.27 K, 19968 kPa | 1.5
312.28 K, 9996 kPa | 1.38
312.28 K, 14963 kPa | 1.43
312.32 K, 4993 kPa | 1.32
312.38 K, 99 kPa | 1.26
321.26 K, 29949 kPa | 1.42
321.36 K, 24985 kPa | 1.36
321.49 K, 19988 kPa | 1.31
321.56 K, 10020 kPa | 1.2
321.6 K, 4982 kPa | 1.14
321.61 K, 15017 kPa | 1.25
321.64 K, 96 kPa | 1.08
330.93 K, 30013 kPa | 1.24
330.94 K, 19996 kPa | 1.14
331.13 K, 9979 kPa | 1.04
331.13 K, 25032 kPa | 1.19
331.2 K, 14998 kPa | 1.09
331.23 K, 5027 kPa | 0.99
331.26 K, 108 kPa | 0.94
340.91 K, 19959 kPa | 0.99
340.95 K, 25015 kPa | 1.04
340.96 K, 30009 kPa | 1.08
341.03 K, 4962 kPa | 0.86
341.06 K, 10010 kPa | 0.91
341.14 K, 15019 kPa | 0.94
341.21 K, 96 kPa | 0.81
350.73 K, 29961 kPa | 0.96
350.74 K, 24964 kPa | 0.92
350.81 K, 14959 kPa | 0.83
350.86 K, 20020 kPa | 0.87
350.88 K, 9984 kPa | 0.79
350.95 K, 4985 kPa | 0.75
351.04 K, 101 kPa | 0.71
360.61 K, 25005 kPa | 0.82
360.67 K, 29996 kPa | 0.85
360.71 K, 19982 kPa | 0.77
360.82 K, 9960 kPa | 0.7
360.86 K, 4959 kPa | 0.66
360.89 K, 14997 kPa | 0.74
360.96 K, 98 kPa | 0.62

CCCCCCCC(=O)OC [methyl octanoate]
Details | viscosity [mPa·s]
294.65 K, 30063 kPa | 1.81
294.79 K, 25004 kPa | 1.73
295.08 K, 19995 kPa | 1.65
295.22 K, 14978 kPa | 1.58
295.3 K, 10017 kPa | 1.5
295.48 K, 5004 kPa | 1.43
295.62 K, 102 kPa | 1.37
303.06 K, 29942 kPa | 1.58
303.1 K, 25013 kPa | 1.52
303.11 K, 20009 kPa | 1.46
303.13 K, 5014 kPa | 1.27
303.13 K, 15018 kPa | 1.39
303.14 K, 9987 kPa | 1.33
303.16 K, 98 kPa | 1.21
312.35 K, 29980 kPa | 1.37
312.4 K, 25014 kPa | 1.32
312.44 K, 10045 kPa | 1.15
312.44 K, 20035 kPa | 1.27
312.47 K, 15056 kPa | 1.21
312.49 K, 5022 kPa | 1.1
312.51 K, 101 kPa | 1.05
321.71 K, 29998 kPa | 1.21
321.89 K, 25073 kPa | 1.16
321.97 K, 9991 kPa | 1.01
322.02 K, 5045 kPa | 0.97
322.06 K, 20031 kPa | 1.11
322.09 K, 103 kPa | 0.92
322.11 K, 14992 kPa | 1.06
331.51 K, 29993 kPa | 1.08
331.6 K, 25035 kPa | 1.04
331.61 K, 20038 kPa | 1
331.62 K, 5013 kPa | 0.86
331.72 K, 15022 kPa | 0.95
331.73 K, 10033 kPa | 0.91
331.87 K, 108 kPa | 0.82
341.44 K, 29966 kPa | 0.96
341.56 K, 25026 kPa | 0.92
341.61 K, 15013 kPa | 0.84
341.62 K, 20045 kPa | 0.88
341.63 K, 4984 kPa | 0.76
341.64 K, 10011 kPa | 0.8
341.66 K, 97 kPa | 0.72
351.58 K, 103 kPa | 0.64
351.6 K, 4996 kPa | 0.68
351.62 K, 29959 kPa | 0.87
351.64 K, 10072 kPa | 0.72
351.65 K, 15006 kPa | 0.75
351.7 K, 19996 kPa | 0.79
351.78 K, 25021 kPa | 0.83
361.2 K, 9990 kPa | 0.64
361.23 K, 4990 kPa | 0.61
361.41 K, 19980 kPa | 0.72
361.44 K, 15037 kPa | 0.68
361.45 K, 103 kPa | 0.58
361.59 K, 25011 kPa | 0.74
361.74 K, 29991 kPa | 0.78
